Data published in paper PMC6152416, “Pharmacological and Toxicological Screening of Novel Benzimidazole-Morpholine Derivatives as Dual-Acting Inhibitors” (Molecules : A Journal of Synthetic Chemistry and Natural …, 2017).
In brackets after ≈: the same amount, converted by molar mass. Read-outs that look alike come from different tables or passages of the source.

Tests used:
[1] = tested on: Pseudomona aeuroginosa ATCC 27853; assay: Antimicrobial broth microdilution (CLSI M07-A9); assay type: cell-based; settings: Pseudomona aeuroginosa [sic] ATCC 27853
Protocol: Microbiological studies were performed according to CLSI reference M07-A9 broth microdilution method for bacterial strains and EUCAST definitive method EDef 7.1 for Candida species. Synthesized compounds were tested for their in vitro growth inhibitory activity against Escherichia coli ATCC 35218, Escherichia coli ATCC 25922, Staphylococcus aureus, ATCC 25923, Pseudomona aeuroginosa ATCC 27853, Enterococcus faecalis ATCC29212, Klebsiella pneumoniae ATCC700603 Listeria monocytogenes ATCC7644, Candida albicans ATCC90028, Candida glabrata ATCC 90030, Candida krusei ATCC 6258, Candida parapsilosis ATCC 22019.
The cultures were obtained from Mueller-Hinton broth (Difco) for the bacterial strains and the yeasts were maintained in Roswell Park Memorial Institute (RPMI) medium, after an overnight incubation at 37 °C for both. The inocula of the test microorganisms were adjusted to match an equivalent turbidity of a 0.5 McFarland standard, which was determined using a spectrophotometer; the final inoculum size was determined to be 0.5–2.5 × 10^5 cfu/mL for antibacterial and antifungal assays. The tests were carried out for both mediums at pH = 7 and two-fold serial dilutions were applied. The last well on the microplates, which was containing only the inoculated broth, was kept as control, and the last well with no growth of microorganism was recorded to represent the minimum inhibitory concentration (MIC50) in μg/mL. For both of the antibacterial and antifungal assays, the test compounds and reference drugs were firstly dissolved in DMSO, and further dilutions were performed to the desired concentrations of 1000, 500, 250, 125, 62.5, 31.25, 15.6, 7.8, 3.9 and 1.95 μg/mL using Mueller–Hinton broth and RPMI medium. The completed plates were incubated for 24 h, and at the end of the incubation, resazurin (20 µg/mL) was added into each well to control the growth in the wells. Final plates including microorganism strains were incubated for 2 h. MIC50 values were determined using microplate reader at […] wavelengths; MIC50 readings were performed twice for entire compounds. Chloramphenicol and ketoconazole were used as reference drugs.

[2] = molecular target: T1, COX-1 (Ovis aries, UniProt P05979); assay: Fluorimetric COX-1 inhibition screening kit (BioVision); assay type: biochemical; settings: for COX-1 inhibition at the initial concentrations: 10^−3 M and 10^−4 M; for inhibition at 10 µM: 10^−5 M; for inhibition at 1 µM: 10^−6 M; for inhibition at 0.1 µM: 10^−7 M; for inhibition at 0.01 µM: 10^−8 M; for inhibition at 0.001 µM: 10^−9 M
T1 construct: purchased BioVision (Milpitas, CA, USA) K548-100
Protocol: (§1) Inhibitory potency of the compounds on COX-1 and COX-2 enzymes was determined by using fluorimetric COX-1 and COX-2 inhibition screening kits from BioVision (Milpitas, CA, USA). The experimental protocol as described in the guides provided by the supplier was followed. All of the pipetting were performed using a robotized system to increase speed, accuracy and precision. Fluorescence intensities of the samples were kinetically measured at 25 °C for 5–10 min by monitoring emissions at 587 nm after excitation at 535 nm. Two appropriate points (T1 and T2) in the linear range of the plot were chosen and the corresponding fluorescence values (RFU1 and RFU2) were obtained. The slope for all samples including Enzyme Control (EC) was calculated by dividing the net ΔRFU (RFU2 − RFU1) values by the time ΔT (T2 − T1). Percentage of relative inhibition was calculated by using the following equation:% Relative inhibition = (Slope of EC − Slope of S/Slope of EC) × 100 where S is the term representing the tested compound [51, 52]. […] The IC50 values were calculated using the plots of the enzyme activity against concentrations by applying regression analyses.

[3] = molecular target: T2, COX-2 (Homo sapiens, UniProt P35354); assay: Fluorimetric COX-2 inhibition screening kit (BioVision); assay type: biochemical; settings: for COX-2 inhibition at the initial concentrations: 10^−3 M and 10^−4 M; for inhibition at 10 µM: 10^−5 M; for inhibition at 1 µM: 10^−6 M, read-out: COX 2 Inhibition %; for inhibition at 0.1 µM: 10^−7 M; for inhibition at 0.01 µM: 10^−8 M; for inhibition at 0.001 µM: 10^−9 M
T2 construct: purchased BioVision (Milpitas, CA, USA) K547-100
T2 sequence (P35354 18-604): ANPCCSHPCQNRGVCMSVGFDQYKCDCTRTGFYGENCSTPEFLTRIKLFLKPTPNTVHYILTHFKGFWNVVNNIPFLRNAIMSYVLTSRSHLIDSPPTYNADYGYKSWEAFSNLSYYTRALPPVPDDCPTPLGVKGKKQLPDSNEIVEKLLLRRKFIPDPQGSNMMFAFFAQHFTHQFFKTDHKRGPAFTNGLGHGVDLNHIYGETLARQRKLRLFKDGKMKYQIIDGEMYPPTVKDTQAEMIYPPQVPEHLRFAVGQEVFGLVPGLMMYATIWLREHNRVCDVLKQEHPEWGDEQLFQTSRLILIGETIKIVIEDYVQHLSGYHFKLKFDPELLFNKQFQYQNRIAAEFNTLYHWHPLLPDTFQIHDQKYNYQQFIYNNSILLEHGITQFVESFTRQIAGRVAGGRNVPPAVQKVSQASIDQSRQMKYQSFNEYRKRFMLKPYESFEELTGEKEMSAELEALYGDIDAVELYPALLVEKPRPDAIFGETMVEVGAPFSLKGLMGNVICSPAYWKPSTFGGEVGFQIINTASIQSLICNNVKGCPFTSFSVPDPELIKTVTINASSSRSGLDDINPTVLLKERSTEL
Protocol: as §1

[4] = molecular target: AChE (Homo sapiens, UniProt P22303); assay type: biochemical
Protocol: Inhibition potency of the test compounds against AChE was determined using Ellman’s method. Enzyme solutions were prepared in gelatin solution (1%, w/v), at the concentration of 2.5 units/mL. […] AChE solution (20 µL/well) and test solution (20 µL/well) were added to phosphate buffer solution (140 µL/well, pH 8.0 ± 0.1), and incubated at 25 °C for 5 min. […] The production of the yellow anion was recorded by multimode microplate reader for 10 min at 412 nm. As a control, an identical solution of the enzyme without the inhibitor was processed. The control and the inhibitor readings were corrected with blank-readings. All processes were assayed in four independent determinations.

[5] = molecular target: T3, human recombinant MAO-A (Homo sapiens, UniProt P21397); assay: MAO inhibition assay (kynuramine, fluorimetric); assay type: biochemical
T3 sequence (P21397 1-527): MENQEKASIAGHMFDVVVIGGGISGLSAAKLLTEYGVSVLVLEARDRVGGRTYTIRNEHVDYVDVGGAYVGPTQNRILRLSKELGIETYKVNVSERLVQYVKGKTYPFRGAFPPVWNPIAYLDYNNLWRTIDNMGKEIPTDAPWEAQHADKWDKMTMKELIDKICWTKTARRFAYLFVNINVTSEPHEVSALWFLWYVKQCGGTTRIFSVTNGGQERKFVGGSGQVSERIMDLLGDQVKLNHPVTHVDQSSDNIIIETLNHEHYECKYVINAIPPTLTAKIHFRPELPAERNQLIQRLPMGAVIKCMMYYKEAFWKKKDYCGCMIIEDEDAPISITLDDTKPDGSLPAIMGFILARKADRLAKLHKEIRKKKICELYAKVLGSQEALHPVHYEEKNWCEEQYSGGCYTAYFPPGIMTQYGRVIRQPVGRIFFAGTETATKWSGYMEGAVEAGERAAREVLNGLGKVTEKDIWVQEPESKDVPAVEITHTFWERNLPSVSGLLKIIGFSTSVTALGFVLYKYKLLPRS
Protocol: (§2) Enzyme activity assays were performed according to the procedure reported by Matsumoto et al. with slight modifications. In order to prevent the destructive effect of light on MAO enzymes, the assays were performed in 96-well black plates. Phosphate buffer solution (0.1 M, pH = 7.4) was used for preparation of stock solutions (5 mg/mL) of both human recombinant MAO-A and MAO-B enzymes. […] The addition of the test compound solution was followed by addition of either MAO-A or MAO-B enzyme (50 μL/well) solutions. After 10 min of incubation at 37 °C, kynuramine (50 μL/well) was added and enzyme-substrate reaction was initiated. The plate was incubated for 20 min at 37 °C and then reaction was terminated by addition of 2 N NaOH (75 μL/well). The fluorimetric reads from the top was performed at 310 nm excitation and 380 nm emission wavelengths.

[6] = molecular target: T4, human recombinant MAO-B (Homo sapiens, UniProt P27338); assay: MAO inhibition assay (kynuramine, fluorimetric); assay type: biochemical
T4 sequence (P27338 1-520): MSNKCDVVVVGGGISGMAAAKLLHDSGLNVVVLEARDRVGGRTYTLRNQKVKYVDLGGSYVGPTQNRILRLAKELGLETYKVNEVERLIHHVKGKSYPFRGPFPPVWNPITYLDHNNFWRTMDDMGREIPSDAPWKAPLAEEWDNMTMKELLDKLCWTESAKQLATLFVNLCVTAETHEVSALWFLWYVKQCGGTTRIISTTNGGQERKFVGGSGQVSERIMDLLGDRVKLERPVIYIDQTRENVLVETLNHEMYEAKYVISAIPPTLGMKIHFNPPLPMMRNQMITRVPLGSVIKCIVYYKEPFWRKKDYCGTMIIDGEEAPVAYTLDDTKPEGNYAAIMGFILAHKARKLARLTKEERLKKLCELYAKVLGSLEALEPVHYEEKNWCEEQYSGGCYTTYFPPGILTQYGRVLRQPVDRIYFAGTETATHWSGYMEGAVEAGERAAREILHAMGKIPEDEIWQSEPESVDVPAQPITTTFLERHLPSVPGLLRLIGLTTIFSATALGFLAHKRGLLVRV
Protocol: as §2

T1 sequence (P05979 25-600): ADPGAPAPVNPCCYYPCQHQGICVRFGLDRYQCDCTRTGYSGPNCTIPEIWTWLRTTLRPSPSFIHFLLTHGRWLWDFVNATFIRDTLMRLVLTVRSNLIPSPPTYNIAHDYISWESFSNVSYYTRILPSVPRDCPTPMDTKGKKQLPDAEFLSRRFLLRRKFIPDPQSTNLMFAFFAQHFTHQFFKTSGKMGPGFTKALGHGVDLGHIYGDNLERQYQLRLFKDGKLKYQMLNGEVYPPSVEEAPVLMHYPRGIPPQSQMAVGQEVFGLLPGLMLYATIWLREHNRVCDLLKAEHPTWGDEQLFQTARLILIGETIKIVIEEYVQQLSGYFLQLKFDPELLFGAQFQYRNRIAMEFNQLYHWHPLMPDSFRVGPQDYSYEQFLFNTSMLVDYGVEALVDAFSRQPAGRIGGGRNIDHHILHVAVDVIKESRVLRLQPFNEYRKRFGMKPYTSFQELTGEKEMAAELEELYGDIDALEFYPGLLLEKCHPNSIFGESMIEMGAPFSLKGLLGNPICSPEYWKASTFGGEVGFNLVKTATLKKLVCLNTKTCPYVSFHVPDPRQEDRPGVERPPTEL
Sequence of AChE (P22303 32-614): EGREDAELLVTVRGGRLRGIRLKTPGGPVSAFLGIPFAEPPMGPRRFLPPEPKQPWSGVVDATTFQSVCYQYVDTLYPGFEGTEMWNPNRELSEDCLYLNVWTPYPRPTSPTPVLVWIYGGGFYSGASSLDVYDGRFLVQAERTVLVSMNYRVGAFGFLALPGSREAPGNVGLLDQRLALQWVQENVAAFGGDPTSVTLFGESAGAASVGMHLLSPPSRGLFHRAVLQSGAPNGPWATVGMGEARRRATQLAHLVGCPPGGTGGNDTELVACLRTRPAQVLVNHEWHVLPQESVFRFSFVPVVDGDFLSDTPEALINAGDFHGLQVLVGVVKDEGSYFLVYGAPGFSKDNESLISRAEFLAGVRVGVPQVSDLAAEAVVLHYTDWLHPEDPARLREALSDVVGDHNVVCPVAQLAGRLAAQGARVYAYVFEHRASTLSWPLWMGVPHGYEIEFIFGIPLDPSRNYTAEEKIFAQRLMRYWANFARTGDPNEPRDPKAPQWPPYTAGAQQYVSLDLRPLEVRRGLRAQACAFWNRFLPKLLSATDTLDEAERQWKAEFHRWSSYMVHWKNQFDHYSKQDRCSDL

Row | Compound | COX-1 Inhibition (%) ([2]; 10^-3 M) | COX-1 Inhibition (%) ([2]; 10^-4 M) | COX-2 Inhibition (%) ([3]; 10^-3 M) | COX-2 Inhibition (%) ([3]; 10^-4 M) | AChE Inhibition (%) ([4]; 10^-3 M) | AChE Inhibition (%) ([4]; 10^-4 M) | MAO-A Inhibition (%) ([5]; 10^-3 M) | MAO-A Inhibition (%) ([5]; 10^-4 M) | MAO-B Inhibition (%) ([6]; 10^-3 M) | MAO-B Inhibition (%) ([6]; 10^-4 M) | IC50 [2] [µM] | COX-1 inhibition at the initial concentrations [2] | inhibition at 10 µM [2] [%] | inhibition at 1 µM [2] [%] | inhibition at 0.1 µM [2] [%] | inhibition at 0.01 µM [2] [%] | inhibition at 0.001 µM [2] [%] | IC50 [3] [µM] | COX-2 inhibition at the initial concentrations [3] | inhibition at 10 µM [3] [%] | other results
1 | O=C(N[C@H](CO)[C@H](O)c1ccc([N+](=O)[O-])cc1)C(Cl)Cl [Chloramphenicol, reference compound] | – | – | – | – | – | – | – | – | – | – | – | – | – | – | – | – | – | – | – | – | MIC50 [1]: 250 mg/L (≈ 774 µM)
2 | N#Cc1ccc(-c2nc3ccccc3n2CCN2CCOCC2)cc1 [Compound 2k, 2-(4-Cyanophenyl)-1-[2-(morpholin-4-yl)ethyl]-1H-benzimidazole] | 28.63 | 28.13 | 26.39 | 20.46 | 20.45 | 20.45 | 31.99 | 26.86 | 43.22 | 34.29 | – | – | – | – | – | – | – | – | – | – | –
3 | c1ccc(COc2ccc(-c3nc4ccccc4n3CCN3CCOCC3)cc2)cc1 [Compound 2f, 2-(4-Benzyloxyphenyl)-1-[2-(morpholin-4-yl)ethyl]-1H-benzimidazole] | 75.37 | 79.08 | 61.23 | 60.20 | 15.75 | 15.75 | 32.14 | 20.65 | 39.32 | 31.14 | 43.2 | more than 50% | 45.4 ± 0.99 | 42.1 ± 0.87 | 34.2 ± 0.76 | 32.7 ± 0.78 | 29.9 ± 0.68 | 44.9 | more than 50% | 47 ± 1.13 | inhibition at 1 µM [3]: 40.2 ± 1.24%; inhibition at 0.1 µM [3]: 35.6 ± 0.91%; inhibition at 0.01 µM [3]: 31.5 ± 0.84%; inhibition at 0.001 µM [3]: 28.7 ± 0.63%
4 | CSc1ccc(-c2nc3ccccc3n2CCN2CCOCC2)cc1 [Compound 2n, 2-(4-Methylthiophenyl)-1-[2-(morpholin-4-yl)ethyl]-1H-benzimidazole] | 39.42 | 32.78 | 30.08 | 33.46 | 12.21 | 12.21 | 32.73 | 24.05 | 34.75 | 32.24 | – | – | – | – | – | – | – | – | – | – | –
5 | CCN(CC)c1ccc(-c2nc3ccccc3n2CCN2CCOCC2)cc1 [Compound 2h, 2-(4-Diethylaminophenyl)-1-[2-(morpholin-4-yl)ethyl]-1H-benzimidazole] | 75.21 | 78.21 | 56.20 | 57.08 | 10.49 | 10.49 | 36.71 | 23.16 | 45.58 | 36.16 | 43 | more than 50% | 46.3 ± 1.09 | 40.9 ± 0.99 | 35.6 ± 0.81 | 30.8 ± 0.93 | 24.2 ± 0.72 | 51.2 | more than 50% | 47.5 ± 1.08 | inhibition at 1 µM [3]: 42.6 ± 1.16%; inhibition at 0.1 µM [3]: 31.8 ± 0.99%; inhibition at 0.01 µM [3]: 28.4 ± 0.82%; inhibition at 0.001 µM [3]: 23 ± 0.68%
